The text below walks through data of ChEMBL document CHEMBL3046047, “Synthesis and evaluation of anti-inflammatory and analgesic activity of 3-[(5-substituted-1,3,4-oxadiazol-2-yl-thio)acetyl]-2H-chromen-2-ones” (Med Chem Res, 2012).

Data set [1] relates to Rattus norvegicus. Kind of data set: Acute Anti-inflammatory activity in Rattus norvegicus albino (rat) assessed as inhibition of carrageenan-induced paw edema at 200 mg/kg, po administered 1 hr after carrageenan challenge measured after 5 hr relative to control. Format: functional.
Data set [2] deals with Rattus norvegicus. Kind of data set: Acute Anti-inflammatory activity inRattus norvegicus albino (rat) assessed as inhibition of carrageenan-induced paw edema at 200 mg/kg, po administered 1 hr after carrageenan challenge measured after 3 hr relative to control. Format: functional.
The nature of data set [3]: Acute toxicity in po dosed Mus musculus albino (mouse) up to 24 hr. As to conditions: in vivo. The class given is organism-based.
The test system of data set [4] is Mus musculus. Kind of data set: Acute toxicity in Mus musculus albino (mouse) assessed as alertness, touch response, and restlessness at 10 to 2000 mg/kg, po after 24 hr. Format: organism-based. Also on record: dose 10-2000 mg/kg, route oral. As to conditions: in vivo.
The test system of data set [5] is Mus musculus. Kind of data set: Acute toxicity in Mus musculus albino (mouse) assessed as mortality up to 2000 mg/kg, po after 24 hr. Format: organism-based. Also noted: dose 2000 mg/kg, route oral. Particulars: in vivo.
Data set [6] has as its system Rattus norvegicus. Kind of data set: Toxicity inRattus norvegicus albino (rat) assessed as ulcer index at 200 mg/kg, po after 7 hr relative to control. As to conditions: in vivo. Also on record: dose 200 mg/kg, route oral. The class given is organism-based.
The subject of data set [7] is Mus musculus. Kind of data set: Analgesic activity in Mus musculus albino (mouse) assessed as protection against acetic acid-induced writhing at 200 mg/kg, po administered 30 min before acetic acid challenge measured after 15 min relative to control. The class given is functional.
Data set [8] relates to Mus musculus. Kind of data set: Analgesic activity in Mus musculus albino (mouse) assessed as protection against acetic acid-induced writhing at 135 mg/kg, po administered 30 min before acetic acid challenge measured after 15 min relative to control. Format: functional. (Writhing tests count abdominal constrictions after an irritant is injected.)
The test system of data set [9] is Rattus norvegicus. Kind of data set: Acute Anti-inflammatory activity in Rattus norvegicus albino (rat) assessed as inhibition of carrageenan-induced paw edema at 13.5 mg/kg, po administered 1 hr after carrageenan challenge measured after 3 hr relative to control. The class given is functional.
The subject of data set [10] is Rattus norvegicus. Kind of data set: Acute Anti-inflammatory activity in Rattus norvegicus albino (rat) assessed as inhibition of carrageenan-induced paw edema at 13.5 mg/kg, po administered 1 hr after carrageenan challenge measured after 5 hr relative to control. Format: functional. In general terms: The carrageenan paw model is a standard test of acute inflammation.

Regarding `O=C(CSc1nnc(-c2ccccc2O)o1)c1cc2ccccc2oc1=O`, the inhibition in vivo (as a rule, the change of the read-out against control, counted positive when it falls) at 200 mg/kg in the data set on Rattus norvegicus [1] turned out to be 48.7%; with Rattus norvegicus [2], 46.3%. In data set [3], this compound yielded an MTD at 24 h of 200 mg/kg. Besides, the Activity entry in the data set on Mus musculus [4] is on record as “Toxic”; with Mus musculus [5], “Non-toxic”.

For the compound `O=C(CSc1nnc(Cc2ccccc2Nc2c(Cl)cccc2Cl)o1)c1cc2ccccc2oc1=O`, the UI in the data set on Rattus norvegicus [6] was found to be 1.7. The Activity is 68% in the data set with Mus musculus [7], “Toxic” in the data set on Mus musculus [4] and “Non-toxic” in the data set with Mus musculus [5]. For the same compound, the inhibition in vivo at 200 mg/kg with Rattus norvegicus [1] was determined as 64.5%; in the data set on Rattus norvegicus [2] it was 81.3%. This compound also displayed an MTD at 24 h in [3] of 200 mg/kg.

On to `O=C(Cc1ccccc1Nc1c(Cl)cccc1Cl)OCc1nnc(SCC(=O)c2cc3ccccc3oc2=O)o1`, for which the inhibition in vivo at 200 mg/kg is 26.3% in the data set with Rattus norvegicus [1] and 37.5% in the data set on Rattus norvegicus [2]. In addition, in [3], the MTD at 24 h worked out at 200 mg/kg. In addition, the Activity result in the data set with Mus musculus [4] is reported as “Toxic”; with Mus musculus [5] it was “Non-toxic”.

Regarding `C[C@H](c1ccc(-c2ccccc2)c(F)c1)c1nnc(SCC(=O)c2cc3ccccc3oc2=O)o1`, the UI with Rattus norvegicus [6] is 2.3. Further, the figures for the Activity with Mus musculus [7], in the data set with Mus musculus [4] and in the data set on Mus musculus [5] were 60%, “Toxic” and “Non-toxic”, respectively. For the same compound, the inhibition in vivo at 200 mg/kg in the data set with Rattus norvegicus [1] stood at 61.6%; in the data set with Rattus norvegicus [2], 74.9%. In addition, the MTD at 24 h in data set [3] stood at 200 mg/kg.

Consider `CC(c1cccc(C(=O)c2ccccc2)c1)c1nnc(SCC(=O)c2cc3ccccc3oc2=O)o1` (stereo not given), for which the UI with Rattus norvegicus [6] worked out at 3.2. In addition, the Activity with Mus musculus [7] is reported as 73%; in the data set with Mus musculus [4] it was “Toxic”; in the data set on Mus musculus [5], “Non-toxic”. The inhibition in vivo at 200 mg/kg in the data set with Rattus norvegicus [1] worked out at 60.9%; in the data set on Rattus norvegicus [2], 65.4%. Besides, in [3], the MTD at 24 h is 200 mg/kg.

On to `COc1ccc2c(c1)c(Cc1nnc(SCC(=O)c3cc4ccccc4oc3=O)o1)c(C)n2C(=O)c1ccc(Cl)cc1`, for which the inhibition in vivo at 200 mg/kg stood at 51.3% in the data set on Rattus norvegicus [1] and 56.9% in the data set with Rattus norvegicus [2]. The compound further yielded an MTD at 24 h in [3] of 200 mg/kg. For the same compound, the Activity result is “Toxic” in the data set with Mus musculus [4] and “Non-toxic” in the data set on Mus musculus [5].

With `O=C(CSc1nnc(C2CCn3c(C(=O)c4ccccc4)ccc32)o1)c1cc2ccccc2oc1=O` (stereo not given), the UI in the data set with Rattus norvegicus [6] is listed as 4.4. Besides, the Activity is 54% with Mus musculus [7], “Toxic” in the data set with Mus musculus [4] and “Non-toxic” in the data set on Mus musculus [5]. Moreover, the results for the inhibition in vivo at 200 mg/kg in the data set with Rattus norvegicus [1] and in the data set with Rattus norvegicus [2] were 71.3% and 67.4%, respectively. Besides, the MTD at 24 h in [3] amounted to 200 mg/kg.

With `CC(=O)Nc1ccc(OCc2nnc(SCC(=O)c3cc4ccccc4oc3=O)o2)cc1`, the inhibition in vivo at 200 mg/kg was 43.4% with Rattus norvegicus [1] and 56.3% with Rattus norvegicus [2]. This compound registered an MTD at 24 h in data set [3] of 200 mg/kg. Moreover, the Activity result with Mus musculus [4] is “Toxic”; in the data set on Mus musculus [5], “Non-toxic”.

On to `CC(C)Cc1ccc(C(C)c2nnc(SCC(=O)c3cc4ccccc4oc3=O)o2)cc1` (stereo not given), for which the values for the inhibition in vivo at 200 mg/kg with Rattus norvegicus [1] and in the data set with Rattus norvegicus [2] were 46.1% and 45%, respectively. Besides, in data set [3], the MTD at 24 h worked out at 200 mg/kg. The Activity result in the data set on Mus musculus [4] is on record as “Toxic”; in the data set on Mus musculus [5] it was “Non-toxic”.

Take `CC(=O)Oc1ccccc1C(=O)O` [ASPIRIN]: the Activity in the data set with Mus musculus [8] amounted to 69%.

Regarding `O=C(O)Cc1ccccc1Nc1c(Cl)cccc1Cl` [DICLOFENAC], the UI with Rattus norvegicus [6] turned out to be 5.5. In addition, the inhibition in vivo at 13.5 mg/kg was 79.5% in the data set on Rattus norvegicus [9] and 75% in the data set on Rattus norvegicus [10].

On to `CC(C(=O)O)c1ccc(-c2ccccc2)c(F)c1` (stereo not given) [FLURBIPROFEN], for which the UI in the data set with Rattus norvegicus [6] is given as 5.3.

`CC(C(=O)O)c1cccc(C(=O)c2ccccc2)c1` (stereo not given) [KETOPROFEN]: the UI in the data set on Rattus norvegicus [6] amounted to 4.6.

Consider `O=C(c1ccccc1)c1ccc2n1CCC2C(=O)O` (stereo not given) [KETOROLAC], for which the UI in the data set on Rattus norvegicus [6] came to 4.9.
